{"source": "patent US20040253597A1", "about": "“Novel protein and dna thereof” (priority 2001, published 2004)", "target": "T1, human TCH169 (Homo sapiens, UniProt Q86YT5)", "T1 construct": "expressed in transfected cells", "T1 sequence (Q86YT5 whole entry)": "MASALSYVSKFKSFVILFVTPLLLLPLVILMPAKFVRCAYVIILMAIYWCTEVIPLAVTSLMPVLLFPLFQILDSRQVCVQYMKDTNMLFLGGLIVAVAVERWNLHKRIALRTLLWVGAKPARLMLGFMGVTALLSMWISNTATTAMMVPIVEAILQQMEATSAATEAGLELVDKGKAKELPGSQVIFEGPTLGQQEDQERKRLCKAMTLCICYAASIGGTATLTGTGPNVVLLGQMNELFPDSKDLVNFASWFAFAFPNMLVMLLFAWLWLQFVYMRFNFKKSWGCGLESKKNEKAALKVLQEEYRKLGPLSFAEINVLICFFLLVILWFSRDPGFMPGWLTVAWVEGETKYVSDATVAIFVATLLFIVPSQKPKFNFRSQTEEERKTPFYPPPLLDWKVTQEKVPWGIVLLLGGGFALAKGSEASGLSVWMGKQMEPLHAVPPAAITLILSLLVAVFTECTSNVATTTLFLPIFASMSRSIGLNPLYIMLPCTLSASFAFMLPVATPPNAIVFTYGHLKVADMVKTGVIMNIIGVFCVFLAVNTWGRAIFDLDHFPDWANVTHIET", "experiment": "[1,5-^14C] citric acid uptake in the human TCH169 gene expression cell line", "type": "cell-based", "details": "human TCH169 expressing CHO cells clone No. 2-11; NaCl buffer (140 mM NaCl) vs NMDG buffer and Mock cells; 37° C., 15 minutes, 30 minutes and an hour", "procedure": "Using human TCH169 gene expression cell line clone No. 2-11 acquired in EXAMPLE 7, the uptake of [1,5-^14C] citric acid was assayed. Human TCH169 gene expression cell line clone No. 2-11 was seeded on a 96 well plate in 4×10^4 cells per well, followed by incubation at 37° C. for 24 hours. After the medium was removed, the cells were washed 3 times with 150 μL NMDG buffer (140 mM N-methyl-D(−)-glucamine, 25 mM Hepes/Tris, 5.4 mM KCl, 1.8 mM CaCl2, 0.8 mM MgSO4, 5 mM glucose, pH 7.4-7.6), and 150 μL NMDG buffer was supplemented thereto followed by incubation at 37° C. for an hour. After the buffer was replaced with 90 μL NaCl buffer (140 mM NaCl, 25 mM Hepes/Tris, 5.4 mM KCl, 1.8 mM CaCl2, 0.8 mM MgSO4, 5 mM glucose, pH 7.4-7.6) or 90 μL NMDG buffer, 10 μL of 223 μM [1,5-^14C] citric acid (manufactured by Amersham-Pharmacia-Biotech) was added and incubation was performed at 37° C. for 15 minutes, 30 minutes and an hour followed by washing 3 times with 200 μL PBS (manufactured by Takara Shuzo Co., Ltd.). After 100 μL of Opitiphase ‘SuperMix’ (manufactured by Perkin-Elmer-Life Science) was added to the system and the mixture was stirred, the amount of [1,5-^14C] citric acid taken up into the cells was measured in terms of the radioactivity. […] CHO dhfr^− cells transfected with vector pcDNA3.1(+) (Mock) was also treated in a similar manner to measure the radioactivity as well."}
{"smiles": "O=C(O)C(O)(C[14C](=O)O)C[14C](=O)O", "note": "[[1,5-^14C] citric acid]", "values": [{"measurement": "uptake of [1,5-^14C] citric acid into the cells (radioactivity)", "value": "taken up into the human TCH169 expression CHO cells"}]}
